US6469026B2, “Isoquinolone inhibitors of factor Xa” (Millennium Pharmaceuticals, Inc., priority 2000, dated 2002)

What was measured:
factor Xa = factor Xa (Homo sapiens, UniProt P00742); test: factor Xa amidolytic assay (XA); assay type: biochemical; conditions: substrate S-2765, 5 min preincubation, room temperature, pH 7.5
Experimental: (§1) The compounds of the present invention are dissolved in buffer to give solutions containing concentrations such that assay concentrations range from 0 to 100 μM. In the assays for thrombin, prothrombinase and factor Xa, a synthetic chromogenic substrate is added to a solution containing test compound and the enzyme of interest and the residual catalytic activity of that enzyme is detennined spectrophotometrically. The IC50 of a compound is determined from the substrate turnover. The IC50 is the concentration of test compound giving 50% inhibition of the substrate turnover.
(§2) The factor Xa and thrombin assays were performed at room temperature, in 0.02 M TrisHCl buffer, pH 7.5, containing 0.15 M NaCl. The rates of hydrolysis of the para-nitroanilide substrate S-2765 (Chromogenix) for factor Xa, and the substrate Chromozym TH (Boehringer Mannheim) for thrombin following preincubation of the enzyme with inhibitor for 5 minutes at room temperature, and were determined using the Softmax 96-well plate reader (Molecular Devices), monitored at 405 nm to measure the time dependent appearance of p-nitroaniline.

thrombin = biological target: T1, thrombin (Homo sapiens, UniProt P00734); test: thrombin amidolytic assay (IIA); assay type: biochemical; conditions: substrate Chromozym TH, 5 min preincubation, room temperature, pH 7.5
T1 construct: proteolytic cleavage of its precursor prothrombin at the Arg-Thr linkage at positions 271-272 and the Arg-Ile linkage at positions 320-321
Experimental: as §1, with “The compounds of the present invention are dissolved in buffer to give solutions containing concentrations such that assay concentrations range from 0 to 100 μM.” left out
as §2

Sequence of factor Xa (P00742 235-488 limits assumed): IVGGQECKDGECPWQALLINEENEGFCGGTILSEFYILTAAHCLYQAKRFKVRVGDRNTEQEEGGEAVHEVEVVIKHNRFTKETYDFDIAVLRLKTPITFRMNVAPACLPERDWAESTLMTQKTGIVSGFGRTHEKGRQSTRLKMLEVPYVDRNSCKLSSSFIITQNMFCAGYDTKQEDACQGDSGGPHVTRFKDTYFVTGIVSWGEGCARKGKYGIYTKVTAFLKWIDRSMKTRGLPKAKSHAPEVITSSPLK
Sequence of factor Xa (P00742 41-179 partner limits assumed): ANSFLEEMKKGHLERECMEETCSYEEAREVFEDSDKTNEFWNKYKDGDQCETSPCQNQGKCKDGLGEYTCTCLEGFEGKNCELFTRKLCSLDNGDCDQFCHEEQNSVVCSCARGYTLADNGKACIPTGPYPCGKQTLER

SMILES | IC50 (factor Xa) | IC50 (thrombin)
CC(=N)N1CCC(Oc2ccc3c(c2)CCN(C(Cc2cccc(C(=N)N)c2)C(=O)NC(C)(C)C)C3=O)CC1 (centres unmarked) [Example 13] | 993 nM | 35900 nM
CC(=N)N1CCC(Oc2ccc3c(c2)CCN(C(Cc2cccc(C(=N)N)c2)C(=O)O)C3=O)CC1 (centres unmarked) [Example 14] | 810 nM | 
N=C(N)c1cccc(CC(C(=O)O)N2CCc3cc(OC4CCN(C(=N)N)CC4)ccc3C2=O)c1 (centres unmarked) [Example 15] | 794 nM | 
COC(=O)C(Cc1ccc2ccc(C(=N)N)cc2c1)N1CCc2cc(OC3CCN(C(=N)N)CC3)ccc2C1=O (centres unmarked) [Example 16] | 693 nM | 228000 nM
CC(=N)N1CCC(Oc2ccc3c(c2)CCN(C(Cc2ccc4ccc(C(=N)N)cc4c2)C(=O)O)C3=O)CC1 (centres unmarked) [Example 17] | 348 nM | 
N=C(N)c1ccc2ccc(CC(C(=O)O)N3CCc4cc(OC5CCN(C(=N)N)CC5)ccc4C3=O)cc2c1 (centres unmarked) [Example 18] | 282 nM | 
CC(=N)N1CCC(Oc2ccc3c(c2)CCN(C(Cc2ccc4ccc(C(=N)N)cc4c2)C(=O)OC(C)(C)C)C3=O)CC1 (centres unmarked) [Example 19] | 258 nM | 119000 nM
CC(C)(C)OC(=O)C(Cc1ccc2ccc(C(=N)N)cc2c1)N1CCc2cc(OC3CCN(C(=N)N)CC3)ccc2C1=O (centres unmarked) [Example 20] | 168 nM | 101000 nM
COC(=O)C(Cc1cccc(C(=N)N)c1)N1CCc2cc(OC3CCN(C(=N)N)CC3)ccc2C1=O (centres unmarked) [Example 21] | 152 nM | 402000 nM
COC(=O)C(Cc1cccc(C(=N)N)c1)N1CCc2cc(OC3CCN(C(C)=N)CC3)ccc2C1=O (centres unmarked) [Example 22] | 129 nM | 393000 nM
CC(C)(C)OC(=O)C(Cc1cccc(C(=N)N)c1)N1CCc2cc(OC3CCN(C(=N)N)CC3)ccc2C1=O (centres unmarked) [Example 23] | 47.5 nM | 233000 nM
CC(=N)N1CCC(Oc2ccc3c(c2)CCN(C(Cc2cccc(C(=N)N)c2)C(=O)OC(C)(C)C)C3=O)CC1 (centres unmarked) [Example 24] | 22.1 nM | 150000 nM
